This is an account of results in US20210341482A1, “CANCER BIOMARKERS” (NOTTINGHAM UNIVERSITY HOSPITALS NHS TRUST, priority 2018, published 2021).

Assay [1] concerns ER+ early stage breast cancer. The assay is described as follows: Distant relapse risk after adjuvant systemic therapy, multicentre adjuvant therapy cohort stratified by SPAG5 mRNA. Type of assay: in vivo, human. An excerpt: A) Breast Cancer—Assessment Death and Distant Relapse Risks after Surgery and Receiving Adjuvant Systemic Therapy if Eligible in Early Stage Breast Cancer (i.e. Examples 26 to 37, 45, 49, 50, 53, 54 and 57)
The inventors evaluated the prognostic utility of SPAG5-mRNA expression in a large combined breast cancer (BC) cohort which was sourced from 15 publically-available, global datasets (n=3538) using the following access numbers.
All the databases had been downloaded and processed. The gene expression data were converted to a common scale (median equal to 0 and standard deviation equal to 1) in order to merge all of the studies data and create combined cohorts. Each sample in the data was standardised to a mean of 0 and standard deviation of 1. Then the data was median centred for each gene whereby median of each gene is 0.
SPAG5 gene expression data of each database were converted to a common scale (median equal to 0 and standard deviation equal to 1) in order to merge all of the studies data that used the same platform and create combined cohorts. To convert to a common scale each sample in the data was standardised to a mean of 0 and standard deviation of 1. Then the data was median centred for each gene whereby median of each gene is 0. Databases using same platform have been merged and the median expression was calculated. The median expression of SPAG5 transcript for each platform has been calculated and values equal to or higher than the median coded as +1 (overexpression). Values of less than the median have been coded 0 or low SPAG5.

In assay [2] the test system is SPAG5 mRNA. Nature of the assay: SPAG5 mRNA expression change and clinical response during preoperative endocrine therapy (letrozole). Format: in vivo, human. An excerpt: B) Breast Cancer—Assessment of the Clinical Dynamic Response after Receiving Preoperative Endocrine Therapy (Aromatase Inhibitor) (i.e. Example 38)
The association between SPAG5 mRNA expression and clinical response after receiving preoperative therapy has been analysed in a total of 101 patients from a consecutive series of 255 postmenopausal women who presented to Western General Hospital in Edinburgh with large primary histologically confirmed estrogen receptor (ER)-rich (Allred scores 6 to 8) invasive breast cancer and who were recruited between 2003 and 2011 fulfilled the requirements to be included in this. All patients gave informed consent and the study was approved by the local regional ethics committee (2001/8/80 and 2001/8/81). Patients were treated with letrozole (Femara, 2.5 mg; Novartis Pharma AG, Basel, Switzerland) daily for at least 3 months. The clinical response was assessed by three-dimensional ultrasound measurements using dynamic (serial) changes in tumor volumes. Tumours with <50% reduction in volume were classified as non-responders. SPAG5 mRNA expression data were retrieved from the publically available gene expression microarray datasets at the National Center for Biotechnology Information Gene Expression Omnibus under access numbers (GSE59515, GSE55374, and GSE20181).
For “GSE59515” and “GSE55374” cases, RNA was extracted, labelled, and hybridized to HumanHT-12 v4 Illumina BeadChips (GPL10558) according to the standard protocol for NuGEN amplified samples. For GSE20181 cases, samples were processed on Affymetrix U133A gene chip (GPL96). There were no significant differences in clinical or pathologic features of patients or tumours from the three datasets. Illumina and Affymetrix data were independently normalized (quantile using the lumi Bioconductor package2l and the log scale robust multi-array analysis expression measure was implemented with the affy packages) and mapped to Ensembl gene identifiers using re-annotation and mapping for oligonucleotide array technologies and custom chip definition file, respectively, before detection filtering and batch correction with cross-platform normalization. Biopsies were taken from the same subjects at three time-points: pre-treatment, after 10-14 days Letrozol (2.5 mg/day, oral), and after 90 days Letrozol (2.5 mg/day, oral).

Take `CC/C(=C(\c1ccccc1)c1ccc(OCCN(C)C)cc1)c1ccccc1` [Tamoxifen]: the distant relapse risk was found to be 46% in assay [1] (ER+ LN+ early stage BC, SPAG5+ mRNA overexpression); 22% in assay [1] (ER+ LN+ early stage BC, low SPAG5 mRNA); 33% in assay [1] (ER+ LN- early stage BC, SPAG5+ mRNA overexpression); 13% in assay [1] (ER+ LN- early stage BC, low SPAG5 mRNA).

Turning to `N#Cc1ccc(C(c2ccc(C#N)cc2)n2cncn2)cc1` [pre-operative endocrine therapy, letrozole], the “cases with SPAG5 mRNA significantly downregulated vs pre-treatment biopsy” value in assay [2] (ER+ tumours, after 2 weeks) came out at 72%. For the same compound, the “change of SPAG5 mRNA expression vs biopsy after 2 weeks” value in assay [2] (ER+ tumours, after 12 weeks) is “significant further reduction”. Further, in assay [2] (non-responding tumours, after 2 or 12 weeks), the “change of SPAG5 mRNA expression vs pre-treatment biopsy” value is reported as “no significant change”. The “responding tumours with significant down-regulation of SPAG5 mRNA” value in assay [2] (tumour volume reduced by 50%, after 2 weeks) came out at 76%.
